Source: article PMC11547505 (Molecules, 2024)
Read-outs that look alike come from different tables or passages of the source.

Tests used:
SARS-CoV-2 [1] = tested on: SARS-CoV-2; design: method as in PMID 33290767, PMID 35456990, PMID 33671463; settings: Vero cells; read-out: IC50 against SARS-CoV-2; cited from earlier work
in vitro [2] = settings: African green monkey
[3] = target: SARS-CoV-2 2′-O-MTase (Nsp10–16) (Severe acute respiratory syndrome coronavirus 2, UniProt P0DTD1); assay: MTaseGlo coupled assay of Nsp10–16 RNA methyltransferase activity; assay type: biochemical; settings: 25 nM Nsp10–16, 300 nM Cap-0 RNA, 5 µM SAM, 15 min; read-out: 2′-O-MTase Inhibition IC50
in vitro [4] = assay: in vitro
SARS-CoV-2 [5] = assay: Anti-SARS-CoV-2 virus yield reduction assay (qRT-PCR) on Vero cells; settings: for Anti-SARS-CoV-2 Activity, % Inhibition at 10 µM: 0.1 MOI, virus yield reduction qRT-PCR; for EC50: read-out: Anti-SARS-CoV-2 Activity, EC50, antiviral dose–response, 2 days post-treatment
SARS-CoV-2 2′-O-MTase = target: SARS-CoV-2 2′-O-MTase; design: method as in PMID 33874769; settings: control nucleoside-based methyltransferase inhibitor; read-out: 2′-O-MTase Inhibition IC50; cited from earlier work
[6] = peripheral blood mononuclear (PBM) cells

Row | SMILES | IC50 (SARS-CoV-2 [1]) [µM] | CC50 (in vitro [2]) [µM] | IC50 [3] [µM] | CC50 (in vitro [4]) [µM] | Anti-SARS-CoV-2 Activity, % Inhibition at 10 µM (SARS-CoV-2 [5]) [%] | EC50 (SARS-CoV-2 [5]) [µM] | CC50 (in vitro [2]; Vero cells (kidney)) [µM] | CC50 (in vitro [4]; [6]) [µM] | IC50 (SARS-CoV-2 2′-O-MTase) [µM]
1 | C=C(C)[C@@H]1CCC(C)=C[C@H]1c1c(O)cc(CCCCC)cc1O [CBD, cannabidiol] | 7.9 | – | – | – | – | – | – | – | –
2 | Cc1ccc2c(c1)-c1c(ccc(C(=O)c3ccc(O)cc3O)c1O)OC2(C)C [CPM-1, (2,4-dihydroxyphenyl)(1-hydroxy-6,6,9-trimethyl-6H-benzo[c]chromen-2-yl)methanone] | – | > 100 | 1.5 ± 0.2 | > 100 | 98.9 | 7.65 | – | – | –
3 | Cc1ccc2c(c1)-c1cc(C(=O)c3ccc(O)cc3O)c(O)cc1OC2(C)C [CPM-2, (2,4-dihydroxyphenyl)(3-hydroxy-6,6,9-trimethyl-6H-benzo[c]chromen-2-yl)methanone] | – | 55.4 | 6.7 ± 0.5 | 41.2 | 98.1 | 8.6 | – | – | –
4 | CCC(CC)COC(=O)[C@H](C)N[P@](=O)(OC[C@H]1O[C@@](C#N)(c2ccc3c(N)ncnn23)[C@H](O)[C@@H]1O)Oc1ccccc1 [Remdesivir, reference compound] | – | – | – | – | 99.9 | 2.3 | > 100 | 2 | –
5 | Nc1ncnc2c1ncn2[C@@H]1O[C@H](C[C@@H](N)CC[C@H](N)C(=O)O)[C@@H](O)[C@H]1O [Sinefungin] | – | – | – | – | – | – | – | – | 3.4 ± 0.4
6 | CC1=CC[C@@H]2[C@@H](C1)c1c(ccc(C(=O)c3ccc(O)cc3O)c1O)OC2(C)C [TPM-1, (2,4-dihydroxyphenyl)((6aR,10aR)-1-hydroxy-6,6,9-trimethyl-6a,7,10,10a-tetrahydro-6H-benzo[c]chromen-2-yl)methanone] | – | – | 2.8 ± 0.5 | – | 99.3 | 4.3 | 13.2 | 59.2 | –
7 | CC1=CC[C@@H]2[C@@H](C1)c1cc(C(=O)c3ccc(O)cc3O)c(O)cc1OC2(C)C [TPM-2, (2,4-dihydroxyphenyl)((6aR,10aR)-3-hydroxy-6,6,9-trimethyl-6a,7,10,10a-tetrahydro-6H-benzo[c]chromen-2-yl)methanone] | – | – | 6.4 ± 1.5 | – | 98.9 | 7.8 | 45.2 | 34.9 | –
8 | CCCCCc1cc(O)c2c(c1)OC(C)(C)[C@@H]1CCC(C)=C[C@@H]21 [Δ^9-THC, delta-9-tetrahydrocannabinol] | 10.3 | – | – | – | – | – | – | – | –
